Data on two compounds can be found in publication PMC11997890, “In Vivo and In Vitro Pharmacokinetic Studies of a Dual Topoisomerase I/II Inhibitor” (ACS Pharmacology & Translational Science, 2025).

Where only a bound is given, the exact number is not on record here.

The target of one data set is T1, CYP2B6 (Homo sapiens, UniProt P20813).
T1 construct: host or cells: human liver microsomes (one value) / recombinant CYP enzyme (other value)
Kind of data set: In vitro CYP inhibition, marker substrate bupropion. In kind it is in vitro ADME. Here is the method: To assess metabolizing enzyme-mediated drug interactions, P8-D6 was incubated with human liver (HLM) or recombinant CYP enzymes and the respective marker substrate according to the FDA (with the exception of using amitriptyline instead of S-mephenytoin). −
However, as some conversions were catalyzed by several enzymes, the conversion rates in HLM increased (e.g., bupropion and diclofenac).
To examine a possible in vitro CYP inhibition, the following CYP enzymes and marker substrates were investigated according to the FDA: , phenacetin (CYP1A2), bupropion (CYP2B6), amodiaquine (CYP2C8), diclofenac (CYP2C9), amitriptyline (CYP2C19), dextromethorphan (CYP2D6), testosterone (CYP3A4), and nifedipine (CYP3A4). Incubation was performed in a 0.2 mL reaction mix consisting of PBS buffer (pH 7.4), 1 mM marker substrate, 1 mM NADPH, and either 0.5 mg/mL recombinant CYP enzyme or human liver microsomes. P8-D6 was added for a final concentration of 0.5 μM, 1 μM, 5 μM, 10 μM, 25 μM, 50 μM, 100 μM, 500 μM, 1000 μM, and (in some cases) 5000 μM. Sample preparation was performed according to in vitro biotransformation.

The next data set deals with T2, P-GP (ABCB1) (Homo sapiens, UniProt P08183).
T2 construct: expressed in transfected cells; host or cells: MDCK (Madin Darby canine kidney)
As to the kind of experiment: Transporter inhibition, calcein-AM accumulation in MDCK cells (P-GP overexpression). The conditions noted are these: intracellular accumulation of calcein-AM. In kind it is cell-based. Here is the method:
(§1) The inhibitory characteristics of P8-D6 on the classic efflux transporters P-GP and BCRP (ABCG2) were evaluated (Figure ).
(§2) A potential interaction of P8-D6 with the export protein P-GP (ABCB1) was evaluated in MDCK (P-GP overexpression) and MDCKII (BCRP overexpression) cells. P-GP interaction was determined by the measurement of calcein accumulation within the cells according to Bauer et al. Calcein-acetoxymethylester (calcein-AM) is a nonfluorescent, lipophilic and therefore highly cell-permeable ester. Once inside the cell, the ester bonds are rapidly cleaved by nonspecific esterases, generating highly fluorescent calcein, which is trapped inside the cell because of its hydrophilic nature. Because calcein-AM is a substrate for P-GP, inhibition of the transporter decreases efflux, which results in a higher intracellular fluorescence signal. […] Calcein-AM (MoBiTec, Göttingen, FRG) was added to a final concentration of 1 μM and incubated for 30 min at 37 °C. Afterward, the cells were immediately washed 3 times with ice-cold Krebs–Ringer buffer and lysed with 1% Triton X-100. […] Each determination was repeated 3 times in 2 experiments to ensure reproducibility. All fluorescence values were corrected by subtracting the background fluorescence.

A further data set concerns the target T3, BCRP (ABCG2) (Homo sapiens, UniProt Q9UNQ0).
T3 construct: expressed in transfected cells; host or cells: MDCKII
As to the kind of experiment: Transporter inhibition, calcein-AM accumulation in MDCKII cells (BCRP overexpression). Type of data set: cell-based. As to conditions: intracellular accumulation of calcein-AM. Here is the method: as §1, §2

The subject of another data set is LDL. Kind of data set: Binding to isolated plasma protein by ultrafiltration. Here is the method: (§3) To examine the effect of the P8-D6 plasma protein binding on the in vivo bioavailability, human and rat plasma was spiked in vitro and incubated with P8-D6. By using ultrafiltration to separate free P8-D6 from the protein-bound fraction, a plasma protein binding of 99% (Figure A) was estimated. However, neither human α-1-microglobulin (3.06%) nor human serum albumin (0.91%) is responsible for binding. According to initial findings, γ-globulins (94.59%), human transferrin (90.43%), LDL (87.99%), human α2-HS glycoprotein (85.29%), and human fibrinogen (78.89%) lead to binding of P8-D6.
(§4) To examine the extent of plasma protein binding, 150 μL of blank samples of human plasma (1 mM) and rat plasma (1 mM), human albumin (1 mM, #A1653, Merck KGaA, Darmstadt); human α1-acid glycoprotein (1 mM; #G9885, Merck KGaA, Darmstadt); human α2-HS-glycoprotein (0.1 mM; #G0516, Merck KGaA, Darmstadt); human transferrin (0.2 mM; #T8158, Merck KGaA, Darmstadt); human fibrinogen (0.2 mM; #F3879, Merck KGaA, Darmstadt); LDL (0.2 mM; […]); and human γ-globulin (1 mM; #G4386, Merck KGaA, Darmstadt) were spiked with P8-D6 in the same final concentration as the protein and incubated in a shaking water bath at 37 °C for 120 min. Afterward, the unbound fraction of P8-D6 was separated by ultrafiltration (Vivaspin 500 10 000 MWCO filter). The sample preparation was performed according to plasma samples. Blank plasma samples served as the control samples.

A further data set concerns the target T4, human (Homo sapiens, UniProt P02763).
T4 construct: purchased Merck KGaA, Darmstadt G9885
Described as above. Here is the method:
as §3, §4

For a further data set, the target named is T5, human serum albumin (Homo sapiens, UniProt P02768).
T5 construct: purchased Merck KGaA, Darmstadt A1653
The data set is described as above. Here is the method: as §3, §4

Another data set has as its target human FMO3 (Homo sapiens, UniProt P31513). Kind of data set: Conversion of P8-D6 by recombinant FMO3. Type of data set: in vitro ADME. The conditions noted are these: seven recombinant CYP isoenzymes and human FMO3. Here is the method:
P8-D6 N-oxide was the most common metabolite for all incubations with subcellular fractions from the homogenized tissue. According to the detected MS-MS fragments (supplied as Supporting Information Chapter 2), it resulted from N-oxygenation of the nitrogen at the side chain since the unmodified fragment of P8-DO (m/z = 414.1) was detected. Furthermore, the detected fragment at m/z = 440.1 is most likely a carbocation at the remaining ethyl chain after splitting off the dimethylamine N-oxide further strengthening the theory of selectively forming this specific N-oxide. In addition, no relevant chemical shifts in the aromatic range of the ^1H NMR compared to P8-D6 and mono were observed (supplied as Supporting Information Chapter 2). Thus, no chemical modifications can have occurred on the aromatic rings, and all changes must therefore affect the side chain. […] To determine which enzymes were responsible for the conversion, seven recombinant CYP 450 isoenzymes recommended by the FDA’s “Guidance for Industry” and human FMO3 were used.
For all phase I metabolism studies (except cell cultures), a 0.3 mL reaction mixture consisting of 1 mM substrate (P8-D6, P8-D6 mono, P8-D6 N-oxide), 1 mM NADPH as a cofactor, 0.67 mg/mL protein from homogenized tissue or subcellular fractions, respectively (except recombinant enzymes, where 0.5 mg/mL was used), and PBS buffer (pH 7.4) was used. […]

T1 sequence (P20813 whole entry): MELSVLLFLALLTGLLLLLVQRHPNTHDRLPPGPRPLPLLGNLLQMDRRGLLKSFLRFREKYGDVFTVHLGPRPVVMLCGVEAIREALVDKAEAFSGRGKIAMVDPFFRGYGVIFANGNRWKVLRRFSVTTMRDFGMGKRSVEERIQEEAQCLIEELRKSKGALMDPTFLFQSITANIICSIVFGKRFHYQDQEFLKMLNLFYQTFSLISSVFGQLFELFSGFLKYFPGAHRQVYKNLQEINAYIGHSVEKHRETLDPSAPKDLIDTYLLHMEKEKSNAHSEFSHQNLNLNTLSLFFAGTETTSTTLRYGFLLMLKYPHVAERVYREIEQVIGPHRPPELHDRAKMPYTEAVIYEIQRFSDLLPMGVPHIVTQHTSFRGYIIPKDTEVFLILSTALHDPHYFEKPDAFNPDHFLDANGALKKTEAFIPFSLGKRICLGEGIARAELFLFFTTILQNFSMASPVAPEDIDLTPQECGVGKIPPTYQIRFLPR
human FMO3, sequence (P31513 whole entry, the tested form may be a part): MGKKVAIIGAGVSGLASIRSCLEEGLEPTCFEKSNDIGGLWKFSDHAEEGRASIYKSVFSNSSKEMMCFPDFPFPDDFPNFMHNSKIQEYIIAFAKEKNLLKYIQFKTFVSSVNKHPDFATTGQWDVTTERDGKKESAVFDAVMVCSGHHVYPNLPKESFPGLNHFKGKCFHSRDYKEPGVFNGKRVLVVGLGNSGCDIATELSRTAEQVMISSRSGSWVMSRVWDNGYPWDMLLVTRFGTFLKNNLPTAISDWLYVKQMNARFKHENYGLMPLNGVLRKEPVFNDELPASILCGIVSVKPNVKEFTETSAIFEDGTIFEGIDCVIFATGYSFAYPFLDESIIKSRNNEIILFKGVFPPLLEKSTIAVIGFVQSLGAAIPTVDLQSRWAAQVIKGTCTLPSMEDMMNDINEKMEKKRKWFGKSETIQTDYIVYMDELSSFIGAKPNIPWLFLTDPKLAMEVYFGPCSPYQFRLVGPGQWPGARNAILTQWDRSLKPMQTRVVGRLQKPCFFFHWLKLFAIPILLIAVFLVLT
T4 sequence (P02763 19-201): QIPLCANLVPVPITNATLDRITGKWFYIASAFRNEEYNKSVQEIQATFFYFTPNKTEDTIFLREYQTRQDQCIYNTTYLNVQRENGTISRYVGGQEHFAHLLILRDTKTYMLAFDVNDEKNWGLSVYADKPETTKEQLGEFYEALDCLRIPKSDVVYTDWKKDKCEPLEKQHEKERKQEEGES
T3 sequence (Q9UNQ0 whole entry, species assumed): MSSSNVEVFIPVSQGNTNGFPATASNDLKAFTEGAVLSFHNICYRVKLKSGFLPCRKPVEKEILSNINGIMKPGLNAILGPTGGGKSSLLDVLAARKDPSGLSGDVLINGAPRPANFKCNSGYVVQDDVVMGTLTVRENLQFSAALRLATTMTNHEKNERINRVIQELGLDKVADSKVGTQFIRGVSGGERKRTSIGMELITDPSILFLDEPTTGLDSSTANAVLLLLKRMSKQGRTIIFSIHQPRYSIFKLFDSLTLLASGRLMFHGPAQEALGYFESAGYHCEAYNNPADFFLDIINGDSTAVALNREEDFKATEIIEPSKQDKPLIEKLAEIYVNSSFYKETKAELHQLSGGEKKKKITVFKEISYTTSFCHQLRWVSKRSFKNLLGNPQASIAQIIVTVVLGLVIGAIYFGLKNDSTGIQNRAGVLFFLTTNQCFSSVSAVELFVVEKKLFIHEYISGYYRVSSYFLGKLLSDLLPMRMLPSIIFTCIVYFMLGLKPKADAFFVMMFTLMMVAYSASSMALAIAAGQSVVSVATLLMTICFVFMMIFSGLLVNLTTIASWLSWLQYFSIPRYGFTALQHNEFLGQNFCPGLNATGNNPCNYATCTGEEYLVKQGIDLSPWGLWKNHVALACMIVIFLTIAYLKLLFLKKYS
T5 sequence (P02768 25-609): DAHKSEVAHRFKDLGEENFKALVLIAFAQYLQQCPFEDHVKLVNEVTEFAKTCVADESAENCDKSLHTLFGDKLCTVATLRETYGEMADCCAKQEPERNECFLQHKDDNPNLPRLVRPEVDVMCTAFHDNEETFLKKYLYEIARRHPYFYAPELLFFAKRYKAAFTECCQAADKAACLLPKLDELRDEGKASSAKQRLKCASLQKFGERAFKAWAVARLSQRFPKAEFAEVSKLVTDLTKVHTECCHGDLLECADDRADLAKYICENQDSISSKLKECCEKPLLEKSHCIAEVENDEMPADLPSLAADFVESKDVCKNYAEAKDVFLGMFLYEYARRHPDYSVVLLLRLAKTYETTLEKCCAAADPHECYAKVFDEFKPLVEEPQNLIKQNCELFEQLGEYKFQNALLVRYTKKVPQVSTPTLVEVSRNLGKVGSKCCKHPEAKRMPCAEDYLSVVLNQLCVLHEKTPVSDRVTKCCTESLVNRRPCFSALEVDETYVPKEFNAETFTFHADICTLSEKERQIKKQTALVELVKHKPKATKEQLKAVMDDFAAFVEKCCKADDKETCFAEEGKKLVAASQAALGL
T2 sequence (P08183 whole entry, species assumed): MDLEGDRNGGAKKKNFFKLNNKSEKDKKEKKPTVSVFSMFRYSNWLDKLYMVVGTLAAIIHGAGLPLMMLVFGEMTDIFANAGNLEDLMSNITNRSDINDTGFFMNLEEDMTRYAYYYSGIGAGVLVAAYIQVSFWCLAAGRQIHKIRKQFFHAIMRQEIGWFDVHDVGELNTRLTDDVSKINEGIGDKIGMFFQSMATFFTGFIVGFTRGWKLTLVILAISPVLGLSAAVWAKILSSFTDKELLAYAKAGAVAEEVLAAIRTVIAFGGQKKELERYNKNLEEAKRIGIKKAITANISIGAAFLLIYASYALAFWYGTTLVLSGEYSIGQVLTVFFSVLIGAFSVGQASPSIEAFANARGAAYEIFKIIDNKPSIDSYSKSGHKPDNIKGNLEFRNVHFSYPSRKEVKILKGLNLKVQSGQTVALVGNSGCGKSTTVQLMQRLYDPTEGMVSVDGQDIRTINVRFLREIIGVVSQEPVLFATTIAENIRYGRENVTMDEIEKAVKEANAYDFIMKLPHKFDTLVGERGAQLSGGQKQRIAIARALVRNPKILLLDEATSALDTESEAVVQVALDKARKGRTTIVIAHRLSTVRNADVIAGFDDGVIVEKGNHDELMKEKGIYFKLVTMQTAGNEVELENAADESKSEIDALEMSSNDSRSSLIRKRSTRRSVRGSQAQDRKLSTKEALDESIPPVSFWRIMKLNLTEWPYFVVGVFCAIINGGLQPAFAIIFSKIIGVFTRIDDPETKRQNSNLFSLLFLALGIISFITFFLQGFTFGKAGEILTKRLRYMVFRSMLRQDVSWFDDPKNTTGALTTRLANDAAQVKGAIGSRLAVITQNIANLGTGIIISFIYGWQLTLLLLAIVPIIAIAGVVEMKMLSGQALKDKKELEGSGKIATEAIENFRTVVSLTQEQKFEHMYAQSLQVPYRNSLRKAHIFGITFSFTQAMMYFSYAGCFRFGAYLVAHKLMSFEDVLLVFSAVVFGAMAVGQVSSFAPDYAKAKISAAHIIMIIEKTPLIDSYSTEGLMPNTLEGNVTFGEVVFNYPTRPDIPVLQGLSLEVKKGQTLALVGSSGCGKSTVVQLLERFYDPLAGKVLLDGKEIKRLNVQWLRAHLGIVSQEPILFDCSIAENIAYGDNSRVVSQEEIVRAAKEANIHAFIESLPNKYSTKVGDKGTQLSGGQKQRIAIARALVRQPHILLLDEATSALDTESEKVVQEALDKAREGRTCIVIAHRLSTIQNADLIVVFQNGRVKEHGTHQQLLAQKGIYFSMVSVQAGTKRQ

A word on the IC50: it is the concentration needed to halve the response being measured. Turning to `COc1cc(-c2cc3ccncc3c3nc(OCCN(C)C)c4cnccc4c23)cc(OC)c1OC` [P8-D6, 6-(N,N-dimethyl-2-aminoethoxy)-11-(3,4,5-trimethoxyphenyl)-pyrido[3,4-c][1,9]-phenanthroline], the IC50 at CYP2B6 (HLM) was greater than 1000 µM; on CYP2B6 (recombinant CYP isoenzyme), greater than 1000 µM; at P-GP (ABCB1), 20.6 µM; on BCRP (ABCG2) it was 16.3 µM. In addition, the “binding of P8-D6” value in the data set with LDL stood at 87.99%; on human, 3.06%; at human serum albumin, 0.91%.
For the compound `COc1cc(-c2cc3ccncc3c3nc(OCC[N+](C)(C)[O-])c4cnccc4c23)cc(OC)c1OC` [P8-D6 N-oxide], the “formation of metabolite from P8-D6 by recombinant enzymes” value on human FMO3 is listed as “only with FMO3”.
